The values that follow come from the METLIN SMRT retention time set (Domingo-Almenara et al. 2019).

SMILES strings stand for the structures.

The nature of this data set: gradient 5% acetonitrile 3 min, to 50% in 2 min, to 85% in 15 min, held 3 min, 100 µL/min. As to conditions: column: Zorbax Extend-C18 2.1 x 50 mm; eluents: water / acetonitrile, 0.1% formic acid. The essentials: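 Retention time was recorded from adduct peaks, which were picked computationally and each inspected manually. Pure standards ran in mixtures of ~100 molecules on HPLC coupled to a quadrupole time-of-flight mass spectrometer, in positive and negative ionization mode, through a Zorbax Extend-C18 column (2.1 × 50 mm, 1.8 μm) at 100 μL/min. Eluents were water and acetonitrile, each with 0.1% formic acid.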
In turn, `COc1ccc(C(=O)N2CCC3(CC2)NC(=O)c2cc(F)ccc2N3C)c(OC)c1` yielded an RP-LC retention time of 734 s.

`CCn1c(=O)sc2cc(S(=O)(=O)N3CCC(C(=O)Nc4cccc(C)n4)CC3)ccc21` yielded an RP-LC retention time of 768 s.

As to `CC(C)(C)c1cc(C(=O)Nc2cc(F)cc(F)c2)nc2ccnn12`, the RP-LC retention time amounted to 1360 s.

With `Cc1ccc(NC(=O)N2CCCC2c2nc(-c3cccc(C)c3)no2)cc1` (stereo not drawn), the RP-LC retention time amounted to 1060 s.

`CCOC(=O)c1c(NCCc2c[nH]c3ccccc23)c2ccc(Cl)cc2[nH]c1=O` registered an RP-LC retention time of 833 s.

For `CCOC(=O)c1c(C)[nH]c(C)c1S(=O)(=O)N1CCC(C(=O)Nc2ccc3c(c2)OCO3)CC1`, the RP-LC retention time came to 774 s.

`CC(C)c1nncn1C1CCN(C(=O)c2ccc3c(c2)OCO3)C1` (stereo not drawn) gave an RP-LC retention time of 612 s.

In the case of `CCn1nc(C)c2ccnc(N3CCC(C(=O)N4CCN(c5cccc(OC)c5)CC4)CC3)c21`, the RP-LC retention time turned out to be 712 s.

As for `CC(C)c1ccc(C(=O)Nc2nc3ccccc3[nH]2)cc1`, the RP-LC retention time was 672 s.

Take `O=C1NC2(CCN(C(=O)NCCc3ccccc3)CC2)Nc2cc(Cl)ccc21`: the RP-LC retention time came out at 766 s.

For the compound `O=C(c1cnccn1)N1CCCn2nc(-c3cccc(Cl)c3)cc2C1`, the RP-LC retention time is 767 s.

In turn, `Cc1c(Cl)cccc1-n1ccnc(NC(=O)Nc2ccc(F)cc2)c1=O` yielded an RP-LC retention time of 1000 s.

Compound `Cc1cc(C)c(NC(=O)Cn2nc3n(c2=O)CCCC3)c(C)c1` displayed an RP-LC retention time of 684 s.

For the compound `COc1ccc(-c2nc(-c3cn(-c4cccc(Cl)c4)nn3)no2)cc1`, the RP-LC retention time is 1100 s.

As to `COc1ccc(OC)c(-c2csc(Nc3ccc(Br)cn3)n2)c1`, the RP-LC retention time was found to be 1190 s.

For the compound `CCCNC(=O)Cc1csc(-n2nc(C)c(Cl)c2C)n1`, the RP-LC retention time is 904 s.

In turn, `COc1ccc(Nc2c(-c3ccc(Cl)cc3)nc3cnccn23)cc1OC` returned an RP-LC retention time of 828 s.

`O=C(CN1CCN(c2ccccc2)CC1)Nc1nc(-c2ccc(Cl)cc2)cs1` displayed an RP-LC retention time of 834 s.

`CCCCn1cc(S(=O)(=O)Nc2ccc(F)c(C)c2)c2cccnc21`: the RP-LC retention time came out at 995 s.

With `Cc1ccc(N2CCC(NC(=O)c3ccccc3)C2=O)cc1` (stereo not drawn), the RP-LC retention time amounted to 794 s.

The compound `CC1=C(c2ccc(C)cc2)S(=O)(=O)N=C1N1CCCN(C(=O)c2cccc(F)c2)CC1` gave an RP-LC retention time of 859 s.

In turn, `O=C(CN1C(=O)CC(c2cccs2)=Nc2ccccc21)Nc1ccccc1Cl` returned an RP-LC retention time of 980 s.

The compound `CCCN1C(=O)COc2ccc(-c3noc(CNC(=O)Cc4ccccc4)n3)cc21` gave an RP-LC retention time of 849 s.

`Cc1nnc(-c2ccc3ccn(CC(=O)Nc4ccc(F)c(F)c4)c3c2)o1` yielded an RP-LC retention time of 829 s.

In turn, `COc1ccccc1-c1nnc(-c2ccc(OC)c(S(=O)(=O)N3CCCCCC3)c2)o1` registered an RP-LC retention time of 1010 s.

The compound `COc1cccc(-c2nc(-c3ccc4c(c3)ncn4CCN3CCCCC3)no2)c1OC` gave an RP-LC retention time of 680 s.

The compound `COc1ccc(-c2cc3c(=O)n(CC(=O)Nc4ccc(C)c(F)c4)ccn3n2)cc1OC` returned an RP-LC retention time of 780 s.

`COC(=O)CC(NC(=O)N1CCCn2nc(-c3ccncc3)cc2C1)c1ccccc1` (stereo not drawn) showed an RP-LC retention time of 608 s.

Regarding `Cc1cccc(NC(=O)CN2C(=O)CCCc3cc(S(=O)(=O)N4CCCC4)ccc32)c1C`, the RP-LC retention time was determined as 916 s.

Turning to `COc1cc(NC(=O)c2noc3c2CC(C)CC3)cc(OC)c1OC` (stereo not drawn), the RP-LC retention time came out at 932 s.

For the compound `Cc1nc(CNC(=O)C2CCN(C(=O)Nc3ccccc3Br)CC2)cs1`, the RP-LC retention time was found to be 655 s.

`Cc1ncc2c(n1)CCN(C(=O)c1cccc(Cl)c1)C2` had an RP-LC retention time of 653 s.

As for `Cc1cc(N2CCN(C)CC2)nc2ccc(NC(=O)NCc3ccc(F)cc3)cc12`, the RP-LC retention time worked out at 556 s.
